Earlier results as cited in US20080139615A1, “COMBINATION OF A HYPNOTIC AGENT AND R (+)-ALPHA-(2,3-DIMETHOXY-PHENYL)-1-[2-(4-FLUOROPHENYL)ETHYL]-4-PIPERIDINEMETHANOL AND THERAPEUTIC APPLICATION THEREOF” (priority 2005, published 2008).

Columns and labels:
[1] = tested on: slow wave sleep (SWS), arousals; settings: patients with sleep maintenance insomnia
[2] = average dosage between 5 and 10 mg, conventional formulation

## COc1cccc([C@H](O)C2CCN(CCc3ccc(F)cc3)CC2)c1OC [Compound A, R-(+)-α-(2,3-dimethoxyphenyl)-1-[2-(4-fluorophenyl)ethyl]-4-piperidinemethanol]
[1]
  SWS (slow wave sleep): increase

## Cc1ccc(-c2nc3ccc(C)cn3c2CC(=O)N(C)C)cc1 [Zolpidem, zolpidem]
[2]
  acting time: up to 6 hours
  half life (average value): about 2.4 hours
